Reference: US10150760B2, “Compounds for use in preparing heterocyclic triazole agonists of the APJ receptor” (AMGEN INC., priority 2016, dated 2018)

molecular target: human APJ receptor (Homo sapiens (Human), UniProt P35414); experiment: [35S]GTPγS binding assay on membranes from CHO cells stably expressing human APJ receptor; assay type: biochemical; details: read-out: Activity hAPJ SPA EC50 IP
Method in brief: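 Agonist-driven [35S]GTPγS (0.2 nM) binding was measured over 90 min at room temperature on human APJ-expressing CHO membranes with bead capture, in buffer containing 3 μM GDP, 200 mM NaCl and 5 mM MgCl2 (pH 7.5). Excess unlabelled GTPγS (100 μM) gave nonspecific signal; EC50 from non-linear fits.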

human APJ receptor, sequence (P35414 whole entry): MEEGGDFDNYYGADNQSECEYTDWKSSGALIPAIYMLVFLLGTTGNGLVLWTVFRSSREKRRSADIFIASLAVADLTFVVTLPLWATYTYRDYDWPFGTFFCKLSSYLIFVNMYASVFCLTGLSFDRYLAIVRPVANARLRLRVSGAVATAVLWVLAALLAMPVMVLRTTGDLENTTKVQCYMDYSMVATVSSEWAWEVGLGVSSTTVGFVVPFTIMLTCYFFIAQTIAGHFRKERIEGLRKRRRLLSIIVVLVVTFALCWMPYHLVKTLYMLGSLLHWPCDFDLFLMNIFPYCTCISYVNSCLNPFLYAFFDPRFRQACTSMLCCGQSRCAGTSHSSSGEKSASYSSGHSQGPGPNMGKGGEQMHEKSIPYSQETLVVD

Compound	EC50
COc1cccc(OC)c1-n1c(NS(=O)(=O)[C@@H](C)[C@H](C)c2ncc(Cl)cn2)nnc1[C@H]1CCC(=O)N1 (single isomer, unassigned) [Example 343.0, (2S,3R)-3-(5-chloropyrimidin-2-yl)-N-(4-(2,6-dimethoxyphenyl)-5-((R)-5-oxopyrrolidin-2-yl)-4H-1,2,4-triazol-3-yl)butane-2-sulfonamide or (2S,3R)-3-(5-chloropyrimidin-2-yl)-N-(4-(2,6-dimethoxyphenyl)-5-((S)-5-oxopyrrolidin-2-yl)-4H-1,2,4-triazol-3-yl)butane-2-sulfonamide]	730 nM
COc1cccc(OC)c1-n1c(NS(=O)(=O)[C@@H](C)[C@H](C)c2ncc(Cl)cn2)nnc1[C@H]1CCC(=O)N1 (single isomer, unassigned) [Example 344.0, (2S,3R)-3-(5-chloropyrimidin-2-yl)-N-(4-(2,6-dimethoxyphenyl)-5-((R)-5-oxopyrrolidin-2-yl)-4H-1,2,4-triazol-3-yl)butane-2-sulfonamide or (2S,3R)-3-(5-chloropyrimidin-2-yl)-N-(4-(2,6-dimethoxyphenyl)-5-((S)-5-oxopyrrolidin-2-yl)-4H-1,2,4-triazol-3-yl)butane-2-sulfonamide]	230 nM
COCC(COC)n1c(NS(=O)(=O)[C@@H](C)[C@@H](OC(C)C)c2ncc(Cl)cn2)nnc1[C@@H]1COCCO1 (single isomer, unassigned) [Example 356.0, (1S,2S)-1-(5-chloro-2-pyrimidinyl)-N-(4-(1,3-dimethoxy-2-propanyl)-5-((2R)-1,4-dioxan-2-yl)-4H-1,2,4-triazol-3-yl)-1-(2-propanyloxy)-2-propanesulfonamide or (1S,2S)-1-(5-chloro-2-pyrimidinyl)-N-(4-(1,3-dimethoxy-2-propanyl)-5-((2S)-1,4-dioxan-2-yl)-4H-1,2,4-triazol-3-yl)-1-(2-propanyloxy)-2-propanesulfonamide]	26 nM
COCC(COC)n1c(NS(=O)(=O)[C@@H](C)[C@@H](OC(C)C)c2ncc(Cl)cn2)nnc1[C@@H]1COCCO1 (single isomer, unassigned) [Example 357.0, (1S,2S)-1-(5-chloro-2-pyrimidinyl)-N-(4-(1,3-dimethoxy-2-propanyl)-5-((2R)-1,4-dioxan-2-yl)-4H-1,2,4-triazol-3-yl)-1-(2-propanyloxy)-2-propanesulfonamide or (1S,2S)-1-(5-chloro-2-pyrimidinyl)-N-(4-(1,3-dimethoxy-2-propanyl)-5-((2S)-1,4-dioxan-2-yl)-4H-1,2,4-triazol-3-yl)-1-(2-propanyloxy)-2-propanesulfonamide]	280 nM
COc1ncnc(OC)c1-n1c(NS(=O)(=O)[C@@H](C)[C@H](C)c2ccc(C#N)cn2)nnc1[C@H]1CCOC1 (single isomer, unassigned) [Example 382.0, (2S,3R)-3-(5-cyano-2-pyridinyl)-N-(4-(4,6-dimethoxy-5-pyrimidinyl)-5-((3R)-tetrahydro-3-furanyl)-4H-1,2,4-triazol-3-yl)-2-butanesulfonamide or (2S,3R)-3-(5-cyano-2-pyridinyl)-N-(4-(4,6-dimethoxy-5-pyrimidinyl)-5-((3S)-tetrahydro-3-furanyl)-4H-1,2,4-triazol-3-yl)-2-butanesulfonamide]	270 nM
COc1ncnc(OC)c1-n1c(NS(=O)(=O)[C@@H](C)[C@H](C)c2ccc(C#N)cn2)nnc1[C@H]1CCOC1 (single isomer, unassigned) [Example 383.0, (2S,3R)-3-(5-cyano-2-pyridinyl)-N-(4-(4,6-dimethoxy-5-pyrimidinyl)-5-((3R)-tetrahydro-3-furanyl)-4H-1,2,4-triazol-3-yl)-2-butanesulfonamide or (2S,3R)-3-(5-cyano-2-pyridinyl)-N-(4-(4,6-dimethoxy-5-pyrimidinyl)-5-((3S)-tetrahydro-3-furanyl)-4H-1,2,4-triazol-3-yl)-2-butanesulfonamide]	680 nM
COc1cccc(OC)c1-n1c(NS(=O)(=O)CCc2ncc(Cl)cn2)nnc1[C@H]1CCOC1 (single isomer, unassigned) [Example 390.0]	330 nM
COc1cccc(OC)c1-n1c(NS(=O)(=O)[C@@H](C)[C@H](C)c2ncc(Cl)cn2)nnc1[C@@H]1COC(C)(C)C1 (single isomer, unassigned) [Example 393.0, (2S,3R)-3-(5-chloro-2-pyrimidinyl)-N-(4-(2,6-dimethoxyphenyl)-5-((3R)-5,5-dimethyltetrahydro-3-furanyl)-4H-1,2,4-triazol-3-yl)-2-butanesulfonamide or (2S,3R)-3-(5-chloro-2-pyrimidinyl)-N-(4-(2,6-dimethoxyphenyl)-5-((3S)-5,5-dimethyltetrahydro-3-furanyl)-4H-1,2,4-triazol-3-yl)-2-butanesulfonamide]	18 nM
COc1cccc(OC)c1-n1c(NS(=O)(=O)[C@@H](C)[C@H](C)c2ncc(Cl)cn2)nnc1[C@@H]1COC(C)(C)C1 (single isomer, unassigned) [Example 394.0, (2S,3R)-3-(5-chloro-2-pyrimidinyl)-N-(4-(2,6-dimethoxyphenyl)-5-((3R)-5,5-dimethyltetrahydro-3-furanyl)-4H-1,2,4-triazol-3-yl)-2-butanesulfonamide or (2S,3R)-3-(5-chloro-2-pyrimidinyl)-N-(4-(2,6-dimethoxyphenyl)-5-((3S)-5,5-dimethyltetrahydro-3-furanyl)-4H-1,2,4-triazol-3-yl)-2-butanesulfonamide]	20 nM
COc1cccc(OC)c1-n1c(NS(=O)(=O)[C@@H](C)[C@H](C)c2ncc(F)cn2)nnc1[C@@H]1COC(C)(C)C1 (single isomer, unassigned) [Example 395.0, (2S,3R)-N-(4-(2,6-dimethoxyphenyl)-5-((3R)-5,5-dimethyltetrahydro-3-furanyl)-4H-1,2,4-triazol-3-yl)-3-(5-fluoro-2-pyrimidinyl)-2-butanesulfonamide or (2S,3R)-N-(4-(2,6-dimethoxyphenyl)-5-((3S)-5,5-dimethyltetrahydro-3-furanyl)-4H-1,2,4-triazol-3-yl)-3-(5-fluoro-2-pyrimidinyl)-2-butanesulfonamide]	67 nM
COc1cccc(OC)c1-n1c(NS(=O)(=O)[C@@H](C)[C@H](C)c2ncc(F)cn2)nnc1[C@@H]1COC(C)(C)C1 (single isomer, unassigned) [Example 396.0, (2S,3R)-N-(4-(2,6-dimethoxyphenyl)-5-((3R)-5,5-dimethyltetrahydro-3-furanyl)-4H-1,2,4-triazol-3-yl)-3-(5-fluoro-2-pyrimidinyl)-2-butanesulfonamide or (2S,3R)-N-(4-(2,6-dimethoxyphenyl)-5-((3S)-5,5-dimethyltetrahydro-3-furanyl)-4H-1,2,4-triazol-3-yl)-3-(5-fluoro-2-pyrimidinyl)-2-butanesulfonamide]	58 nM
COc1cccc(OC)c1-n1c(NS(=O)(=O)[C@@H](C)[C@H](OC)c2ncc(Cl)cn2)nnc1[C@H]1CCC(=O)N1 (single isomer, unassigned) [Example 397.0, (1R,2S)-1-(5-chloro-2-pyrimidinyl)-N-(4-(2,6-dimethoxyphenyl)-5-((2R)-5-oxo-2-pyrrolidinyl)-4H-1,2,4-triazol-3-yl)-1-methoxy-2-propanesulfonamide or (1R,2S)-1-(5-chloro-2-pyrimidinyl)-N-(4-(2,6-dimethoxyphenyl)-5-((2S)-5-oxo-2-pyrrolidinyl)-4H-1,2,4-triazol-3-yl)-1-methoxy-2-propanesulfonamide]	160 nM
COc1cccc(OC)c1-n1c(NS(=O)(=O)[C@@H](C)[C@H](OC)c2ncc(Cl)cn2)nnc1[C@H]1CCC(=O)N1 (single isomer, unassigned) [Example 398.0, (1R,2S)-1-(5-chloro-2-pyrimidinyl)-N-(4-(2,6-dimethoxyphenyl)-5-((2R)-5-oxo-2-pyrrolidinyl)-4H-1,2,4-triazol-3-yl)-1-methoxy-2-propanesulfonamide or (1R,2S)-1-(5-chloro-2-pyrimidinyl)-N-(4-(2,6-dimethoxyphenyl)-5-((2S)-5-oxo-2-pyrrolidinyl)-4H-1,2,4-triazol-3-yl)-1-methoxy-2-propanesulfonamide]	560 nM
COc1cccc(OC)c1-n1c(NS(=O)(=O)[C@@H](C)[C@@H](OC(C)C)c2ncc(Cl)cn2)nnc1[C@H]1CCC(=O)N1 (single isomer, unassigned) [Example 399.0, (1S,2S)-1-(5-chloro-2-pyrimidinyl)-N-(4-(2,6-dimethoxyphenyl)-5-((2R)-5-oxo-2-pyrrolidinyl)-4H-1,2,4-triazol-3-yl)-1-(2-propanyloxy)-2-propanesulfonamide or (1S,2S)-1-(5-chloro-2-pyrimidinyl)-N-(4-(2,6-dimethoxyphenyl)-5-((2S)-5-oxo-2-pyrrolidinyl)-4H-1,2,4-triazol-3-yl)-1-(2-propanyloxy)-2-propanesulfonamide]	470 nM
COc1cccc(OC)c1-n1c(NS(=O)(=O)[C@@H](C)[C@@H](OC(C)C)c2ncc(Cl)cn2)nnc1[C@H]1CCC(=O)N1 (single isomer, unassigned) [Example 400.0, (1S,2S)-1-(5-chloro-2-pyrimidinyl)-N-(4-(2,6-dimethoxyphenyl)-5-((2R)-5-oxo-2-pyrrolidinyl)-4H-1,2,4-triazol-3-yl)-1-(2-propanyloxy)-2-propanesulfonamide or (1S,2S)-1-(5-chloro-2-pyrimidinyl)-N-(4-(2,6-dimethoxyphenyl)-5-((2S)-5-oxo-2-pyrrolidinyl)-4H-1,2,4-triazol-3-yl)-1-(2-propanyloxy)-2-propanesulfonamide]	330 nM
CO[C@H](c1ncc(Cl)cn1)[C@H](C)S(=O)(=O)Nc1nnc([C@H]2CCOC2)n1Cc1ccon1 (single isomer, unassigned) [Example 401.0, (1R,2S)-1-(5-chloro-2-pyrimidinyl)-1-methoxy-N-(4-(1,2-oxazol-3-ylmethyl)-5-((3R)-tetrahydro-3-furanyl)-4H-1,2,4-triazol-3-yl)-2-propanesulfonamide or (1R,2S)-1-(5-chloro-2-pyrimidinyl)-1-methoxy-N-(4-(1,2-oxazol-3-ylmethyl)-5-((3S)-tetrahydro-3-furanyl)-4H-1,2,4-triazol-3-yl)-2-propanesulfonamide]	100 nM
